Reference: PubChem BioAssay (NCI)
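Interpolation was linear, between the two tested concentrations surrounding the appropriate level; five concentrations were tested over 48 hours in 96-well plates. At the GI50, growth is halved. TGI is the concentration that stops growth completely.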

Key:
Experiment in all cases: growth of human tumour cells (NCI), 48 h
[1] = system: OVCAR-4 ovarian
[2] = system: SK-OV-3 ovarian
[3] = system: NCI/ADR-RES ovarian
[4] = system: SK-MEL-2 melanoma
[5] = system: PC-3 prostate
[6] = system: IGROV1 ovarian
[7] = system: UO-31 renal
[8] = system: UACC-62 melanoma
[9] = system: DMS 114 small cell lung
[10] = system: RXF-631 renal
[11] = system: M19-MEL melanoma
[12] = system: KM20L2 colon
[13] = system: XF 498 CNS
[14] = system: DLD-1 colon
[15] = system: HOP-18 NSCLC
[16] = system: SNB-78 CNS
[17] = system: LXFL 529 NSCLC
[18] = system: DMS 273 small cell lung

| SMILES | TGI [1] [µM] | TGI [2] [µM] | TGI [3] [µM] | TGI [4] [µM] | TGI [5] [µM] | TGI [6] [µM] | TGI [7] [µM] | TGI [8] [µM] | TGI [9] [µM] | TGI [10] [µM] | TGI [11] [µM] | TGI [12] [µM] | TGI [13] [µM] | TGI [14] [µM] | TGI [15] [µM] | TGI [16] [µM] | TGI [17] [µM] | TGI [18] [µM] | GI50 [9] [µM] | GI50 [12] [µM] |
| --- | --- | --- | --- | --- | --- | --- | --- | --- | --- | --- | --- | --- | --- | --- | --- | --- | --- | --- | --- | --- |
| CCN(CC)C1C(=O)NC1C#Cc1ccccc1 (configuration not stated) | > 100 | > 100 | > 100 | > 100 | > 100 | > 100 | > 100 | > 100 |  |  |  |  |  |  |  |  |  |  |  |  |
| O=C1c2ccccc2C(=O)C1C(c1ccc(F)cc1)C1C(=O)c2ccccc2C1=O | > 100 | > 100 |  | > 100 |  |  | > 100 | > 100 | > 100 | > 100 | > 100 | > 100 | > 100 | > 100 | > 100 | > 100 | > 100 | > 100 |  |  |
| CC(C)(C)OC(=O)NCCNCCNc1ccccc1 | > 100 | > 100 | > 100 | > 100 | > 100 | > 100 | > 100 | > 100 |  |  |  |  |  |  |  |  |  |  |  |  |
| Cn1c2ccccc2c(=O)c2cccc(C(=O)NCC(=O)O)c21 | > 100 | > 100 | > 100 | > 100 | > 100 | > 100 | > 100 | > 100 |  |  |  |  |  |  |  |  |  |  |  |  |
| CN(C)CCNC(=O)Cn1cnc2cccc([N+](=O)[O-])c2c1=O | > 100 | > 100 | > 100 | > 100 | > 100 | > 100 | > 100 | > 100 |  |  |  |  |  |  |  |  |  |  |  |  |
| COc1cccc(Nc2nc(N)nc(N)c2N)c1 | > 100 | > 100 | > 100 | > 100 | > 100 | > 100 | > 100 | > 100 |  |  |  |  |  |  |  |  |  |  |  |  |
| COC(=O)C(C(=O)C(=O)Nc1cccc([N+](=O)[O-])c1)c1nc2ccc([N+](=O)[O-])cc2[nH]c1=O (configuration not stated) | > 100 | > 100 |  | > 100 |  | > 100 | > 100 | > 100 | > 100 | > 100 | > 100 | > 100 | > 100 | > 100 | > 100 | > 100 | > 100 | > 100 |  |  |
| O=c1[nH]nc(-c2ccccc2)n1/N=C/c1ccccc1Cl | > 100 | > 100 | 67.9 | 46.3 | 57.6 | > 100 | > 100 | 46.5 |  |  |  |  |  |  |  |  |  |  |  |  |
| O=c1cc(-c2ccco2)[nH]c2cc3c(cc12)OCO3 | > 100 |  |  | > 100 |  | > 100 | > 100 | > 100 | > 100 | > 100 | > 100 | 66.8 | 82.4 | > 100 |  |  | > 100 | > 100 | 37.2 | 21.2 |
| CCCCCCCCCCCCCCCCCCNc1nc(=O)n(C2CC(O)C(COP(=O)(O)OCC3OC(n4ccc(N)nc4=O)C(O)C3O)O2)cc1F (configuration not stated) | > 100 | > 100 | > 100 | > 100 | > 100 | > 100 | > 100 | > 100 |  |  |  |  |  |  |  |  |  |  |  |  |
| C#CCN(N=O)C(=O)NCCCCC(NC(C)=O)C(=O)NCc1ccccc1 (configuration not stated) | > 100 | > 100 |  |  |  | > 100 | > 100 | > 100 | > 100 |  | > 100 | > 100 | > 100 | > 100 | > 100 | > 100 | > 100 |  |  |  |
| O=C1c2ccccc2C2C1C(c1ccccc1)C1(Cc3ccccc3C1=O)C2c1ccccc1 (configuration not stated) | > 100 | > 100 | > 100 | > 100 | > 100 | > 100 | > 100 | > 100 |  |  |  |  |  |  |  |  |  |  |  |  |
| CCOC(=O)c1c(C)n([O-])c2cc(Cl)c(Cl)cc2[n+]1=O | 33.9 | 85.9 | 66.6 | 52 | > 100 | 24.1 | 67.1 | 32.5 |  |  |  |  |  |  |  |  |  |  |  |  |
| CC1(C)N=C(N)N=C(N)N1c1cccc(C(=O)Nc2ccc(S(=O)(=O)F)cc2)c1 | > 100 | > 100 | > 100 | > 100 | > 100 | > 100 | > 100 | > 100 |  |  |  |  |  |  |  |  |  |  |  |  |
| CCOC(=O)c1c(C)n(C)c2c1cc(O)c1[nH]c3c(c12)CCCC3 | 23.5 | > 100 | 54 | 37 | 46.6 | 37.2 | 69.9 | 35.8 |  |  |  |  |  |  |  |  |  |  |  |  |
